Source: US6646129B2, “Cyanoguanidines as cell proliferation inhibitors” (Leo Pharmaceutical Products Ltd. A/S, priority 1997, dated 2003)

How the values were obtained:
Assay type in all cases: cell-based
[1] = test system: human non small cell lung cancer (NCI-H460) cell line; assay: Inhibition of tumour cell proliferation in vitro, [3H]thymidine incorporation, NCI-H460; settings: NCI-H460 cells, 24 hours with compound, DNA synthesis by [3H]thymidine incorporation
Method: (§1) The inhibition of tumour cell proliferation was studied using different types of human cancer cell lines. The cell lines under investigation were small cell lung carcinoma (NYH), non small cell lung carcinoma (NCl-H460), and breast cancer (MCF-7) using the following general procedure:
(§2) The cells were cultured in vitro for 24 hours in the presence of the compound under investigation. DNA synthesis was measured by incorporation of [^3H]thymidine, and the median inhibitory concentrations (IC50) of the compounds were calculated.

[2] = test system: human breast cancer (MCF-7) cell line; assay: Inhibition of tumour cell proliferation in vitro, [3H]thymidine incorporation, MCF-7; settings: MCF-7 cells, 24 hours with compound, DNA synthesis by [3H]thymidine incorporation
Method: as §1, §2

[3] = test system: human small cell lung carcinoma (NYH) cell line; assay: Inhibition of tumour cell proliferation in vitro, [3H]thymidine incorporation, NYH; settings: NYH cells, 24 hours with compound, DNA synthesis by [3H]thymidine incorporation
Method: as §1, §2

Structure (SMILES) | IC50 ([1]; Homo sapiens) [nM] | IC50 ([2]; Homo sapiens, MCF7) [nM] | IC50 ([3]; Homo sapiens) [nM] | IC50 [1] [nM] | IC50 [2] [nM] | IC50 [3] [nM]
CCP(=O)(CC)OCCCCCCCCCCCNC(=Nc1ccncc1)NC#N [Example No. 8, N-Cyano-N′-(11-diethylphosphinoyloxyundecanyl)-N″-4-pyridylguanidine] | 6 | 1.7 | 0.48 | – | – | –
N#CNC(=NCCCCCCCCCCCOC1CCCCO1)Nc1ccncc1 (stereo not drawn) [Example No. 7, N-Cyano-N′-4-pyridyl-N″-(11-tetrahydropyranyloxyundecanyl)guanidine] | – | – | – | 4.6 | 4.2 | 0.51
CC(C)(C)OC(=O)NCCCCCCCCCCCCNC(=Nc1ccncc1)NC#N [Example No. 1, N-(1 2-t-Butoxycarbonylaminododecyl)-N′-cyano-N″-4-pyridylguanidine] | 45 | 3.6 | 0.62 | – | – | –
